Measurements: patent US5852005A, “Tetracyclic triterpenes” (Novartis AG, priority 1994, dated 1998)
Values after ≈ are worked out from the molar mass of the structure shown. Like-named read-outs stand apart in the source and are kept apart here.

Assays:
[1] = system: Spleen cells (proliferative response of lymphocytes to allogenic stimulation); assay: Two-way MLR (Murine Mixed Lymphocyte Reaction); assay type: cell-based, mouse (Balb/c, CBA); conditions: Table 5
Experimental: 1. Proliferative Response Of Lymphocytes to Allogenic Stimulation
Two-way MLR (Murine Mixed Lymphocyte Reaction)
Spleen cells (0.5×106) from Balb/c mice (female, 8-10 weeks) are co-incubated for 5 .sctn.days with 0.5×10^6 spleen cells from CBA mice (female, 8-10 weeks). The allogenic cells induce a proliferative response in the responder spleen cell population which is measured by labelled precursor incorporation into the DNA. Test compounds are added at the start of incubation at varying concentrations and proliferative response compared with untreated controls.
(§1) Fractions are dissolved in ethanol and tested in the Mishell-Dutton assay (primary humoral immune-response to SRBC in vitro, MD) a mixed lymphocyte reaction (MLR) and on the P-815 mastocytoma cell line for cytotoxicity.

[2] = system: Jurkat cells; assay: Cytotoxic and cytostatic activity using transformed human T-cell line (Jurkat); assay type: cell-based; conditions: Table 5
Experimental: 2. Cytotoxic and cytostatic activity using a transformed human T-cell line (Jurkat)
5×10^4 Jurkat cells are grown in a final volume of 0.2 ml for 72 hours after which the cell numbers are enumerated by use of an enzymatic assay using p-nitrophenyl-N-acetyl-β-D-glucosamindle as substrate. Test compounds are added at varying concentration at the start of culture and cytotoxicity compared with untreated controls.

[3] = system: P-815 mastocytoma cells; assay: Cytotoxic and cytostatic activity in vitro using the P-815 mastocytoma cell line; assay type: cell-based; conditions: Table 5
Experimental: as §1

[4] = system: GvH reaction (popliteal lymph node weight); assay: Localised Graft-versus-Host (GvH) Reaction in the rat; assay type: in vivo; conditions: up to about 100× more active than corresponding 17β-epimers
Experimental: 4. Localised Graft-versus-Host (GvH) Reaction in the rat
Spleen cells (1×10^7) from 6 week old female Wistar/Furth (WE) rats are injected subcutaneously on day 0 into the left hind-paw of female (F344×WF)F1 rats weighing about 100 g. Animals are treated for 4 consecutive days and the popliteal lymph nodes are removed and weighed on day 7. The difference in weight between the two lymph nodes is taken as the parameter for evaluating the reaction. Test compounds are administered daily for 4 days at varying dosage p.o. and inhibition compared with untreated controls. Dammara compounds are active (inhibit GvH reaction) in this test model at doses of the order of from 10 μg to 10 mg/kg/day p.o..

[5] = system: systemic lupus erythematosus (disease onset); assay: Systemic lupus erythematosus (SLE) in the mouse (NZB/NZW); assay type: in vivo, mouse (NZB/NZW F1); conditions: po, read-out: TEST 10 (SLE) ED100
Experimental: 10. Systemic lupus erythematosus (SLE) in the mouse (NZB/NZW)
Female New Zealand black/white (NZB/NZW) F1 mice spontaneously develop characteristics that resemble systemic lupus erythematosus. […] Treatment starts at 24 weeks of age when animals show proteinurea. Compounds are administered p.o. 3 times a week for a total of 12 weeks. Status is determined every second week and animals are sent for histological evaluation at termination of the experiment Ten mice are used per group.

[6] = system: DTH reaction (footpad swelling); assay: DTH (delayed-type hypersensitivity) induced by SRBC-TH cells; assay type: in vivo, mouse (C57 BL/6); conditions: Mus musculus, po, 24 h, read-out: TEST 9 (DTH) ED50
Experimental: 50 μl of the SRBC cell suspension (diluted 1:1 v/v with PBS) is injected s.c. into the left hind footpad (to measure non specific increase in footpad swelling due to the injection procedure). Right and left hind footpad thickness is measured 24 hours later.

Row | Structure (SMILES) | IC50 MLR [1] [µg/mL] | IC50 Jurkat [2] [µg/mL] | IC50 P-815 [3] [µg/mL] | IC50 ([1]; Mus musculus, Lymphocyte) [µg/mL] | IC50 ([2]; Homo sapiens, Jurkat) [µg/mL] | activity relative to corresponding 17β-epimers [4] | IC50 ([3]; Mus musculus, P815) [µg/mL] | ED100 ([5]; one trial run) [mg/kg] | ED50 ([6]; one trial run) [mg/kg] | ED100 [5] [mg/kg] | ED50 [6] [mg/kg]
1 | COc1cc([C@@H]2c3cc4c(cc3C[C@H]3COC(=O)[C@@H]32)OCO4)cc(OC)c1OC [Silicicolin, reference compound] | 0.002 (≈ 5.02 nM) | 0.0025 (≈ 6.27 nM) | 0.004 (≈ 10 nM) |  |  |  |  |  |  |  | 
2 | C=C(C/C=C/C(C)(C)O)[C@@H]1CC[C@]2(C)[C@@H]1CC[C@@H]1[C@@]3(C)CC[C@H](O)C(C)(C)[C@@H]3CC[C@]12C [compound of formula IC, (17α)-23-(E)-dammara-20,23-diene-3β,25-diol] | 0.011 |  |  | 0.0105 | > 5 | up to 100 × | > 5 | 0.01 | 0.004 |  | 
3 | C=C(C/C=C/C(C)(C)O)[C@H]1CC[C@]2(C)[C@@H]1CC[C@@H]1[C@@]3(C)CC[C@H](O)C(C)(C)[C@@H]3CC[C@]12C [β-EPIMER OF IC, (17β)-23-(E)-dammara-20,23-dien-3β,25-diol] |  |  |  |  |  |  |  |  |  | 10 | 10
